Source: patent US20090306576A1, “System for Transmembrane Administration of a Permeant and Method for Administering a Permeant” (Pantec Biosolutions AG, priority 2005, published 2009)

Assay: Serum concentration over time after transdermal application of the drug patch on microporated skin (FIG. 10a, 10b)
Format: in vivo
Conditions: over a short period of about two hours
Excerpt: The drug is entering the permeation surface by passive diffusion. The amount of drug entering the permeation surface is mainly determined by the permeation surface A(t) over time, as long as the patch 5 provides a sufficient amount of drug. Preferably the patch 5 is able to provide much larger quantities of drug than the permeation surface A(t) is able to absorb. Preferably the patch 5 is able to provide a sufficient concentration level of the permeant at the permeation surface over a period of time during with the permeant is applied. Therefore, the serum concentration as a function of time can be determined by an appropriate poration of the skin 1 with an initial microporation.
FIG. 10a to 10b show the administration of the same drug, for example 100 mg acetylsalicylic acid, the drug being arranged on the skin 1 as disclosed in FIG. 3c. Depending on the permeation surface A(t) as a function of time, the level of the serum concentration as well as the time period within which the drug is released, can be predescribed. In FIG. 10a the permeation surface A(t), not shown in detail, is chosen such that the maximal serum concentration is about 25 g/l over a short period of time of about two hours. […]

maximal serum concentration (FIG. 10a, 100 mg acetylsalicylic acid on porated skin (transdermal application TD)): about 25 g/l
maximal serum concentration (FIG. 10b, fast application (turbo), 100 mg acetylsalicylic acid on porated skin): about 30 g/l
Structure (SMILES): CC(=O)Oc1ccccc1C(=O)O [acetylsalicylic acid]
